Assay results: patent publication US7595074B2, “Polymeric antioxidants” (University of Massachusetts Lowell, priority 2002, dated 2009)
Like-named read-outs stand apart in the source and are kept apart here. Values belong to the compound of their own block, whether it stands above or below them.

Legend:
[1] = bleaching of a beta-carotene/linoleate model system (antioxidant activity); type: biochemical; set-up: % Antioxidant Activity of Monomer / % Antioxidant Activity: concentration or dose not given beside the values; conditions: for % Antioxidant Activity: compounds of each step of the Example 8 scheme, procedure of Food Chemistry 73:285-290 (2001)
Procedure: The antioxidant activity of monomers and enzymatically-prepared polymeric antioxidants was compared by measuring the bleaching of a beta-carotene system. In the model system, beta-carotene undergoes rapid discoloration in the absence of an antioxidant. The assay and measurements were conducted according to the procedure described in Jayaprakasha, G. K., et al. Food Chemistry 73: 285-290 (2001) and Hidalgo, M. E., et al. Phytochemistry 37: 1585-1587 (1994), the contents of which are incorporated herein by reference. Briefly, beta-carotene (0.2 mg), linoleic acid (20 mg), and 200 mg of Tween-40 (polyoxyethylene sorbitan monopalmitate) were dissolved in 0.5 mL of chloroform. The chloroform was removed under vacuum and the resulting mixture was immediately diluted with 10 mL of distilled water and mixed well for 1-2 minutes. The resulting emulsion was further made up to 50 mL with oxygenated water. Aliquots (4 mL) of the emulsion were mixed with 0.2 mL of test sample (monomer or polymer) in dimethylformamide (DMF), so that there were 100 ppm of monomer or polymer present in the aliquot. A control was prepared by mixing 0.2 mL of DMF with 4 mL of the above emulsion. The samples were incubated at 50° C. The absorbance of all samples at 470 nm was taken initially (t=0) and continued up to 180 minutes at 15 minute intervals. Antioxidant activity is calculated based on the formula: Antioxidant Activity=100(1−(Ao−At)/(A^1o−A^1t)), • Ao=absorbance of the test sample at zero time, • A^1o=absorbance of the control at zero time, • At=absorbance of the test sample at time t (180 min), and • A^1t=absorbance of the control at time t (180 min).
The antioxidant activity of several other antioxidant monomer/polymer pairs were determined by the procedure described in Example 3.
The antioxidant activity of compounds formed in each step of the scheme shown above were measured according to the procedure published in Food Chemistry 73:285-290 (2001).

[2] = thermogravimetric analysis (TGA); type: physicochemical; conditions: thermal stability, FIG. 4
[3] = oil stability index of cooking oil heated to frying temperature
Procedure: (§1) The oils were heated to frying temperature (190° C.) and their oil stability index was measured. The oil stability index (American Oil Chemists' Society Cd 126-92) measures the amount of time before the oil begins to rapidly oxidize. A greater length of time indicates an oil with a greater antioxidant capacity, which likely corresponds to a longer potential shelf life.

[4] = as above; remark: listed apart in the source
Procedure: as §1

[5] = quoted for comparison; cited from earlier work
[6] = system: Sprague-Dawley albino rats; conditions: rat, in vivo
Procedure: A study was conducted based upon the standards of OECD Guidelines for Testing of Chemicals, OECD 423. Ten Sprague-Dawley albino rats were administered with 2000 mg/kg body weight poly(TBHQ) as a single dose via gastric gavage. After administration, the animals were returned to their cages and observed for signs of toxicity for up to 14 days. Body weights were determined prior to dosing and on the day of death or prior to terminal sacrifice. A second study was performed using three female rats with 500 mg/kg body weight of poly(TBHQ).

[7] = monomer, 100 ppm, 50° C., 180 min, Antioxidant Activity=100(1−(Ao−At)/(A1o−A1t))
[8] = monomer, procedure of Example 3

- temperature up to which there was about 15% mass loss (TGA) [2]: about 125 °C
Compound: COc1ccc(O)cc1C(C)(C)C [2-tert-butyl-4-hydroxyanisole]
- Monomer Activity [1, 7]: 44.24

Compound: OCc1cccc(O)c1 [3-hydroxybenzyl alcohol]
- Monomer Activity [1, 7]: 1.0
- % Antioxidant Activity of Monomer [1, 8]: 1.0%

Compound: Oc1ccc(N=Nc2ccccc2)cc1 [4-azophenylphenol]
- Monomer Activity [1, 7]: 5.4
- % Antioxidant Activity of Monomer [1, 8]: 5.4%

- oil stability index (time before the oil begins to rapidly oxidize) ([3]; Canola oil, 190° C., equal concentration of phenol moieties): 10.8 h
- oil stability index (time before the oil begins to rapidly oxidize) ([4]; Corn oil, 190° C., equal concentration of phenol moieties): 6.6 h
Compound: CC(C)(C)c1cc(O)ccc1O [TBHQ, tert-butyl-hydroquinone]
- % Antioxidant Activity [1]: 6.72%

Compound: CC(=O)Oc1ccc(OC(C)=O)c(C(C)(C)C)c1 [b]
- % Antioxidant Activity [1]: 2.45%

Compound: CC(=O)Oc1ccc(O)cc1C(C)(C)C [c, 4-acetyloxy-3-tert-butylphenol]
- % Antioxidant Activity [1]: 7.9%

Compound: Oc1ccccc1 [phenol]
- % Antioxidant Activity of Monomer [1]: 2.1%
- Monomer Activity [1]: 2.1

Compound: [Cl-].[Na+] [sodium chloride]
- oral LD50 [5]: about 3000 mg/kg

Compound: Poly(tert-butyl-hydroquinone) [Poly(TBHQ)]
- oil stability index (time before the oil begins to rapidly oxidize) [3]: 19.2 h
- oil stability index (time before the oil begins to rapidly oxidize) [4]: 9.0 h
- female rats that died prior to completion of the study [6]: Three of the five
- gross necropsy of surviving animals [6]: None of the surviving animals showed abnormal signs
- necropsy finding in animals that did not survive 14 days [6]: the intestines were inflamed
- overall toxicity [6]: relatively low toxicity to rats
- survival [6]: survived the duration of the study
- oral LD50 ([6]; po): 500 to 2000 mg/kg
